From paper PMC12056667 (Chemical Science, 2025)
Like-named read-outs stand apart in the source and are kept apart here.

Experiments:
[1] = tested on: Acinetobacter spp. NT3-1 – tet(X3); experiment: microbe, parasite or virus in culture; assay type: cell-based; conditions: for MIC: Acinetobacter, read-out: Tet(X) Inhibitor MIC, alone, Acinetobacter spp. NT3-1; for Combination (Antibiotic/Inhibitor) MICs: inhibitor: inhibitor in combination with tigecycline; for Combination (Antibiotic/Inhibitor) MICs: inhibitor / Combination (Antibiotic/Inhibitor) MICs: antibiotic: lowest FICI; for Combination (Antibiotic/Inhibitor) MICs: antibiotic: tigecycline in combination with the inhibitor; for FICI / Outcome: with tigecycline
Outline: (§1)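 Checkerboards in CAMHB crossed seven 2-fold inhibitor dilutions with ten 2-fold tigecycline dilutions, inoculum about 1.5 × 10^6 cfu mL^−1 stock, 37 °C for 18 h, growth read visually with or without resazurin. FICI = FICA + FICB, with synergy <0.5, […] and antagonism >4.0. Off-scale MICs were set at the borderline value.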

[2] = tested on: Salmonella enterica T-2a – tet(X4); experiment: microbe, parasite or virus in culture; assay type: cell-based; conditions: for MIC: Salmonella enterica, read-out: Tet(X) Inhibitor MIC; for Combination (Antibiotic/Inhibitor) MICs: inhibitor: inhibitor in combination with tigecycline; for Combination (Antibiotic/Inhibitor) MICs: inhibitor / Combination (Antibiotic/Inhibitor) MICs: antibiotic: lowest FICI; for Combination (Antibiotic/Inhibitor) MICs: antibiotic: tigecycline in combination with the inhibitor; for FICI / Outcome: with tigecycline
Outline: as §1

[3] = tested on: E. coli TOP10 containing plasmid pBAD-TOPO-Tet(X4); experiment: Broth microdilution MIC and checkerboard assay; assay type: cell-based, Escherichia coli; conditions: for MIC: Escherichia coli; for Tet(X) inhibitor MIC: alone; for Combination (antibiotic/inhibitor) MIC: inhibitor: inhibitor in combination with tigecycline; for Combination (antibiotic/inhibitor) MIC: inhibitor / Combination (antibiotic/inhibitor) MIC: antibiotic: lowest FICI; for Combination (antibiotic/inhibitor) MIC: antibiotic: tigecycline in combination with the inhibitor; for FICI / Outcome: with tigecycline
Outline: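 E. coli TOP10 with pBAD-TOPO-Tet(X4), […], tested by CLSI broth microdilution in CAMHB, ~1.5 × 10^6 cfu mL^−1 inoculum, 37 °C, 18 h. Checkerboard of seven 2-fold inhibitor dilutions × ten dilutions; growth read visually ± resazurin; FICI = FICA + FICB.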

[4] = tested on: Escherichia coli T-24a – tet(X4); experiment: microbe, parasite or virus in culture; assay type: cell-based; conditions: for MIC: Escherichia coli, read-out: Tet(X) Inhibitor MIC, alone, E. coli T-24a; for Combination (Antibiotic/Inhibitor) MICs: inhibitor: inhibitor in combination with tigecycline; for Combination (Antibiotic/Inhibitor) MICs: inhibitor / Combination (Antibiotic/Inhibitor) MICs: antibiotic: lowest FICI; for Combination (Antibiotic/Inhibitor) MICs: antibiotic: tigecycline in combination with the inhibitor; for FICI / Outcome: with tigecycline
[5] = tested on: Acinetobacter baumannii NT5-1 – tet(X5); experiment: microbe, parasite or virus in culture; assay type: cell-based; conditions: for MIC: Acinetobacter baumannii, read-out: Tet(X) Inhibitor MIC; for Combination (Antibiotic/Inhibitor) MICs: inhibitor: inhibitor in combination with tigecycline; for Combination (Antibiotic/Inhibitor) MICs: inhibitor / Combination (Antibiotic/Inhibitor) MICs: antibiotic: lowest FICI; for Combination (Antibiotic/Inhibitor) MICs: antibiotic: tigecycline in combination with the inhibitor; for FICI / Outcome: with tigecycline
[6] = tested on: Proteus penneri NT6-2 – tet(X6); experiment: microbe, parasite or virus in culture; assay type: cell-based; conditions: for MIC: Proteus penneri, read-out: Tet(X) Inhibitor MIC; for Combination (Antibiotic/Inhibitor) MICs: inhibitor: inhibitor in combination with tigecycline; for Combination (Antibiotic/Inhibitor) MICs: inhibitor / Combination (Antibiotic/Inhibitor) MICs: antibiotic: lowest FICI; for Combination (Antibiotic/Inhibitor) MICs: antibiotic: tigecycline in combination with the inhibitor; for FICI / Outcome: with tigecycline
[7] = read-out: Tet(X) Inhibitor MIC, alone, without L-arabinose induction

Row | Structure (SMILES) | MIC [1] [µg/mL] | Combination (Antibiotic/Inhibitor) MICs: inhibitor [1] [µg/mL] | Combination (Antibiotic/Inhibitor) MICs: antibiotic [1] [µg/mL] | FICI [1] | Outcome [1] | MIC [2] [µg/mL] | Combination (Antibiotic/Inhibitor) MICs: inhibitor [2] [µg/mL] | Combination (Antibiotic/Inhibitor) MICs: antibiotic [2] [µg/mL] | FICI [2] | Outcome [2] | MIC [3, 7] [µg/mL] | Combination (antibiotic/inhibitor) MIC: inhibitor ([3]; 0.2%w/v L-arabinose) [µg/mL] | Combination (antibiotic/inhibitor) MIC: inhibitor ([3]; without L-arabinose) [µg/mL] | Combination (antibiotic/inhibitor) MIC: antibiotic ([3]; 0.2%w/v L-arabinose) [µg/mL] | Combination (antibiotic/inhibitor) MIC: antibiotic ([3]; without L-arabinose) [µg/mL] | FICI ([3]; 0.2%w/v L-arabinose) | Outcome ([3]; 0.2%w/v L-arabinose) | FICI ([3]; without L-arabinose) | Outcome ([3]; without L-arabinose) | MIC [4] [µg/mL] | also measured
1 | CN1CCN(CCCN2c3ccccc3Sc3ccc(C(F)(F)F)cc32)CC1 [Trifluoperazine] | 16 | 16 | 4 | 2 | indifferent (indifferent (0.5-4.0)) | > 128 | 64 | 16 | 1 | indifferent (indifferent (0.5-4.0)) | 64 | 8 | 32 | 2 | 0.13 | 0.6 | Indifferent (indifferent (0.5–4.0)) | 1 | indifferent (indifferent (0.5-4.0)) | 256 | Tet(X) inhibitor MIC ([3]; induced with 0.2%w/v L-arabinose): 64 µg/mL; Tet(X) inhibitor MIC ([3]; induced with 0.2%w/v L-arabinose, listed as trifluoperazine): 16 to 64 µg/mL; reduction of the tigecycline MIC ([3]; at high concentrations of inhibitor, 0.2%w/v L-arabinose): 2–4 fold; FICI ([3]; 0.2%w/v L-arabinose, listed as trifluoperazine): 0.5-1; Combination (Antibiotic/Inhibitor) MICs: inhibitor [4]: 32 µg/mL; Combination (Antibiotic/Inhibitor) MICs: antibiotic [4]: 8 µg/mL; FICI [4]: 0.6; Outcome [4]: indifferent (indifferent (0.5-4.0)); MIC [5]: 128 µg/mL; Combination (Antibiotic/Inhibitor) MICs: inhibitor [5]: 64 µg/mL; Combination (Antibiotic/Inhibitor) MICs: antibiotic [5]: 1 µg/mL; FICI [5]: 0.6; Outcome [5]: indifferent (indifferent (0.5-4.0)); MIC [6]: > 128 µg/mL; Combination (Antibiotic/Inhibitor) MICs: inhibitor [6]: 128 µg/mL; Combination (Antibiotic/Inhibitor) MICs: antibiotic [6]: 4 µg/mL; FICI [6]: 1.5; Outcome [6]: indifferent (indifferent (0.5-4.0))
2 | O=C(c1ccc(OCCN2CCCCC2)cc1)c1c(-c2ccc(O)cc2)sc2cc(O)ccc12 [Raloxifene] | 4 | 2 | 2 | 1 | indifferent (indifferent (0.5-4.0)) | > 128 | 128 | 16 | 1.5 | indifferent (indifferent (0.5-4.0)) | > 128 | 128 | > 128 | 0.5 | 0.25 | 1.1 | Indifferent (indifferent (0.5–4.0)) | 2 | indifferent (indifferent (0.5-4.0)) | 256 | MIC ([3]; read-out: Tet(X) inhibitor MIC, alone, induced with 0.2%w/v L-arabinose): > 128 µg/mL; Combination (Antibiotic/Inhibitor) MICs: inhibitor [4]: 128 µg/mL; Combination (Antibiotic/Inhibitor) MICs: antibiotic [4]: 8 µg/mL; FICI [4]: 1; Outcome [4]: indifferent (indifferent (0.5-4.0)); MIC [5]: > 128 µg/mL; Combination (Antibiotic/Inhibitor) MICs: inhibitor [5]: 128 µg/mL; Combination (Antibiotic/Inhibitor) MICs: antibiotic [5]: 2 µg/mL; FICI [5]: 1.3; Outcome [5]: indifferent (indifferent (0.5-4.0)); MIC [6]: > 128 µg/mL; Combination (Antibiotic/Inhibitor) MICs: inhibitor [6]: > 128 µg/mL; Combination (Antibiotic/Inhibitor) MICs: antibiotic [6]: 8 µg/mL; FICI [6]: 2; Outcome [6]: indifferent (indifferent (0.5-4.0))
